Test results taken from ChEMBL document CHEMBL1135895, “Stereochemistry at phosphorus of the reaction catalyzed by myo-inositol monophosphatase” (J Med Chem, 2002).

What was measured:
[1] = IMPase-catalyzed hydrolysis at pH 9.00 at 25 degrees Centigrade.; assay type: ADME; conditions: for Km / k cat: buffer
[2] = Oxidation catalyzed by inositol dehydrogenase at pH 9.13.; assay type: ADME

| Km [2] | k cat [2] | k cat/Km [2] | SMILES | Km [1] | k cat [1] | Ki [1] |
| --- | --- | --- | --- | --- | --- | --- |
| – | – | – | O=P(O)(O)OC1C(O)C(O)C(O)C(O)C1O (stereo not drawn) | 110 µM | 0.48 s⁻¹ | – |
| – | – | – | OC1C(O)C(O)C(OP(O)(O)=S)C(O)C1O (stereo not drawn) | 2070 µM | 0.185 s⁻¹ | 1140 µM |
| 580 µM | 13.3 s⁻¹ | 23100 M⁻¹ s⁻¹ | O[C@H]1[C@H](O)[C@@H](O)[C@H](O)[C@@H](O)[C@H]1O [INOSITOL] | – | – | – |
